In ChEMBL document CHEMBL4483862, “Open-source discovery of chemical leads for next-generation chemoprotective antimalarials” (2018):

Tested on: Plasmodium berghei
Test: Luciferase/luciferin-expressing antifolate-resistant parasites were used to infect a culture of HepG2 cells that were pre-incubated with compounds. Infected hepatocytes emit light due to the luciferase reaction. Assay results are presented as the percent inhibition of light emission compared to control. […]
Assay type: functional
Conditions: sporozoite; for IC90: read-out: LUCIFERASE INFECTION ASSAY - IC90
[1] = read-out: LUCIFERASE INFECTION ASSAY - IC50

| Compound | IC90 [µM] | IC50 [1] [µM] | also measured |
| --- | --- | --- | --- |
| Clc1cccc(-c2nnc3ccc(-c4ccc(N5CCOCC5)cc4)cn23)c1 | > 10 | – | IC50 (PBLUC_HILL_SLOPE 15.8, PBLUC_R_SQUARED 0.114, read-out: LUCIFERASE INFECTION ASSAY - IC50): 9.72 µM |
| Cc1cc(C)c(NC(=O)CNc2nn3cc(-c4ccccc4)nc3s2)c(C)c1 | > 10 | – | IC50 (PBLUC_HILL_SLOPE 1.1, PBLUC_R_SQUARED 0.432, read-out: LUCIFERASE INFECTION ASSAY - IC50): 1.54 µM |
| Cc1ccccc1C(Sc1nnc(-c2ccc[nH]2)o1)c1ccccc1 (stereo unspecified) | > 10 | – | IC50 (HEPG2TOX_HILL_SLOPE 0.627, HEPG2TOX_R_SQUARED 0.488, read-out: LUCIFERASE INFECTION ASSAY - IC50): > 10 µM |
| O=C(Nc1cccc(S(=O)(=O)NC2CC2)c1)c1cc(-c2ccccc2)nn1-c1ccccc1 | > 10 | – | IC50 (HEPG2TOX_HILL_SLOPE 3.71, HEPG2TOX_R_SQUARED 0.26, read-out: LUCIFERASE INFECTION ASSAY - IC50): > 10 µM |
| O=C(Nc1cccc(F)c1)Nc1ccc2nc(-c3cccs3)nn2c1 | 4.34 | – | IC50 (PBLUC_HILL_SLOPE 208, PBLUC_R_SQUARED 0.19, read-out: LUCIFERASE INFECTION ASSAY - IC50): 4.29 µM |
| COc1cc(OC)c(C(=O)NC(C)C23CC4CC(CC(C4)C2)C3)cc1OC (stereo unspecified) | 9.64 | – | IC50 (PBLUC_HILL_SLOPE 2.98, PBLUC_R_SQUARED 0.335, read-out: LUCIFERASE INFECTION ASSAY - IC50): 4.61 µM |
| Cc1nc(SCC(=O)Nc2ccccc2C#N)c2c(-c3cccs3)csc2n1 | > 10 | – | IC50 (PBLUC_HILL_SLOPE 4.22, PBLUC_R_SQUARED 0.391, read-out: LUCIFERASE INFECTION ASSAY - IC50): 6.05 µM |
| O=C(c1c[nH]c2ccccc12)C(c1ccccc1)N1CCN(CC(=O)N2CCCC2)CC1 (stereo unspecified) | > 10 | – | IC50 (PBLUC_HILL_SLOPE 1.28, PBLUC_R_SQUARED 0.65, read-out: LUCIFERASE INFECTION ASSAY - IC50): 3.5 µM |
| CCN(CCNc1ncnc2sc3c(c12)CCC3)c1cccc(C)c1 | 1.44 | – | IC50 (HEPG2TOX_HILL_SLOPE 1.22, HEPG2TOX_R_SQUARED 0.961, PBLUC_HILL_SLOPE 11.3, PBLUC_R_SQUARED 0.508, read-out: LUCIFERASE INFECTION ASSAY - IC50): 1.18 µM |
| Cn1ccnc1S/C(=C/C=C(C#N)C#N)c1ccc(Cl)cc1 | > 10.1 | – | IC50 (HEPG2TOX_HILL_SLOPE 6.6, HEPG2TOX_R_SQUARED 0.647, PBLUC_HILL_SLOPE 3.43, PBLUC_R_SQUARED 0.702, read-out: LUCIFERASE INFECTION ASSAY - IC50): 5.57 µM |
| CCOC(=O)c1c(-c2ccc(C)cc2C)csc1NC(=O)COC(=O)c1cc(OC)c(OC)cc1[N+](=O)[O-] | 9.51 | – | IC50 (FFLUC_HILL_SLOPE 2.01, FFLUC_R_SQUARED 0.464, HEPG2TOX_HILL_SLOPE 2.45, HEPG2TOX_R_SQUARED 0.944, PBLUC_HILL_SLOPE 17.4, PBLUC_R_SQUARED 0.281, read-out: LUCIFERASE INFECTION ASSAY - IC50): 8.38 µM |
| CCN(CC)c1ncnc2c1oc1nc(CC(C)C)c3c(c12)CCC3 | > 9.75 | > 9.75 | – |
| COc1ccc(-c2cnc3sc(NCc4ccncc4)nn23)cc1OC | > 8.98 | > 8.98 | – |
| CCCCNC(=O)c1c(NC(=O)C(C)Oc2ccccc2)nc2ccccn12 (stereo unspecified) | > 8.67 | – | IC50 (HEPG2TOX_HILL_SLOPE 1.79, HEPG2TOX_R_SQUARED 0.135, PBLUC_HILL_SLOPE 4.23, PBLUC_R_SQUARED 0.241, read-out: LUCIFERASE INFECTION ASSAY - IC50): 6.54 µM |
| O=c1cc(CSc2nc3ccccc3s2)[nH]c2nc3ccccc3n12 | 3.5 | – | IC50 (PBLUC_HILL_SLOPE 13.4, PBLUC_R_SQUARED 0.218, read-out: LUCIFERASE INFECTION ASSAY - IC50): 2.97 µM |
| N#Cc1cccc(CSc2nc(NC3CC3)c3ccccc3n2)c1 | > 10 | – | IC50 (HEPG2TOX_HILL_SLOPE 0.422, HEPG2TOX_R_SQUARED 0.349, read-out: LUCIFERASE INFECTION ASSAY - IC50): > 10 µM |
| CCOc1ccc(-n2c(SCC(=O)c3c(N)n(C)c(=O)n(C)c3=O)nnc2-c2ccccc2Cl)cc1 | 3.67 | 3.28 | – |
| Cc1ccc(NC(=O)c2ccc(Cl)c(NC(=O)c3cccs3)c2)cc1 | > 8.9 | > 8.9 | – |
| CN(C)S(=O)(=O)c1cccc(C(=O)Nc2cnc3ccccc3c2)c1 | > 10 | – | IC50 (PBLUC_HILL_SLOPE 0.341, PBLUC_R_SQUARED 0.599, read-out: LUCIFERASE INFECTION ASSAY - IC50): 0.331 µM |
| O=C(Nc1ccccc1)c1ccccc1OCC(O)COCc1ccc(Cl)cc1 (stereo unspecified) | > 10 | > 10 | – |
| Cn1ccc2cc(-c3cn4c(-c5cccc(Cl)c5)cnc4cn3)ccc21 | 2.86 | – | IC50 (HEPG2TOX_HILL_SLOPE 1.09, HEPG2TOX_R_SQUARED 0.945, PBLUC_HILL_SLOPE 1.73, PBLUC_R_SQUARED 0.845, read-out: LUCIFERASE INFECTION ASSAY - IC50): 0.804 µM |
| CN(Cc1ccccc1Cl)C(=O)c1ccc(NC(=O)c2ccco2)cc1 | > 10 | – | IC50 (PBLUC_HILL_SLOPE 1.69, PBLUC_R_SQUARED 0.585, read-out: LUCIFERASE INFECTION ASSAY - IC50): 7.96 µM |

| Compound | IC90 [µM] | IC50 [1] [µM] | also measured |
| --- | --- | --- | --- |
| O=[N+]([O-])c1c(Sc2ccc(Cl)cc2)ccc2nsnc12 | 8.49 | – | IC50 (FFLUC_HILL_SLOPE 1.96, FFLUC_R_SQUARED 0.577, HEPG2TOX_HILL_SLOPE 12.8, HEPG2TOX_R_SQUARED 0.787, PBLUC_HILL_SLOPE 2.81, PBLUC_R_SQUARED 0.465, read-out: LUCIFERASE INFECTION ASSAY - IC50): 3.88 µM |
| CC(C)N(C(=O)COC(=O)C1=NNC(=O)CC1)C(C)C | > 10 | – | IC50 (FFLUC_HILL_SLOPE 15.7, FFLUC_R_SQUARED 0.158, read-out: LUCIFERASE INFECTION ASSAY - IC50): > 10 µM |
| O=C(N/N=C(\Cc1ncc[nH]1)c1ccccc1)c1cccs1 | 4.17 | – | IC50 (HEPG2TOX_HILL_SLOPE 1.23, HEPG2TOX_R_SQUARED 0.975, PBLUC_HILL_SLOPE 4.09, PBLUC_R_SQUARED 0.691, read-out: LUCIFERASE INFECTION ASSAY - IC50): 2.44 µM |
| COc1cc(-c2ccc3ncc(-c4cccs4)n3n2)cc(OC)c1OC | 4.08 | – | IC50 (HEPG2TOX_HILL_SLOPE 2.45, HEPG2TOX_R_SQUARED 0.958, PBLUC_HILL_SLOPE 3.17, PBLUC_R_SQUARED 0.64, read-out: LUCIFERASE INFECTION ASSAY - IC50): 2.04 µM |
| Cc1noc(C)c1COc1ccc(C(=O)NNc2c(Cl)cc(Cl)cc2Cl)cc1 | > 10 | > 10 | – |
| N#Cc1ccc(C=C(C(=O)NCc2ccccc2)C(=O)NCc2ccccc2)cc1 | > 10 | > 10 | – |
| Cc1cc(C(=O)NCc2nnc3ccccn23)c(C)n1C1CCCCC1 | 6.61 | – | IC50 (FFLUC_HILL_SLOPE 1.4, FFLUC_R_SQUARED 0.0106, PBLUC_HILL_SLOPE 1.41, PBLUC_R_SQUARED 0.709, read-out: LUCIFERASE INFECTION ASSAY - IC50): 1.39 µM |
| O=C1c2ccccc2O[C@@H](c2ccc(Cl)cc2)[C@@H]1O | > 12 | – | IC50 (PBLUC_HILL_SLOPE 64.7, PBLUC_R_SQUARED 0.241, read-out: LUCIFERASE INFECTION ASSAY - IC50): 12 µM |
| Cn1c(Cc2ccccc2)nc2cnc(Nc3cccc(C(F)(F)F)c3)cc21 | > 10 | > 10 | – |
| CC(C)(c1ccccc1)c1ccc(OCC(O)CN2CCC(C(N)=O)CC2)cc1 (stereo unspecified) | > 10 | > 10 | – |
| COc1cccc(N/N=C2\C=CC(=O)c3ncccc32)c1 | 3.47 | – | IC50 (HEPG2TOX_HILL_SLOPE 12.1, HEPG2TOX_R_SQUARED 0.589, PBLUC_HILL_SLOPE 8.94, PBLUC_R_SQUARED 0.612, read-out: LUCIFERASE INFECTION ASSAY - IC50): 2.71 µM |
| OC(c1cc(C(F)(F)F)cc(C(F)(F)F)c1)c1cc(C(F)(F)F)cc(C(F)(F)F)c1 | > 7.23 | – | IC50 (HEPG2TOX_HILL_SLOPE 8.63, HEPG2TOX_R_SQUARED 0.166, read-out: LUCIFERASE INFECTION ASSAY - IC50): > 7.23 µM |
| Cc1[nH]c2ccccc2c1C(c1ccccc1)N1CCN(C)CC1 (stereo unspecified) | > 10 | > 10 | – |
| Nc1nc2ccc(C(=O)N3CCN(C/C=C/c4ccccc4)CC3)cc2s1 | > 10 | – | IC50 (HEPG2TOX_HILL_SLOPE 1.29, HEPG2TOX_R_SQUARED 0.665, PBLUC_HILL_SLOPE 22.8, PBLUC_R_SQUARED 0.0313, read-out: LUCIFERASE INFECTION ASSAY - IC50): > 10 µM |
| CSc1sc(C(=O)NNC(=O)Nc2ccccc2)c2c1C=CCC2 | > 9.18 | – | IC50 (FFLUC_HILL_SLOPE 1.34, FFLUC_R_SQUARED 0.714, read-out: LUCIFERASE INFECTION ASSAY - IC50): > 9.18 µM |
| Cn1c(Sc2sccc2[N+](=O)[O-])nnc1C(F)(F)F | > 10.6 | > 10.6 | – |
| Nc1c(C(=O)Nc2nc3ccccc3s2)sc2ncccc12 | 0.512 | 0.00465 | – |
| CC(C)(C)c1ccc(NC(=S)NCCCCCCNC(=S)Nc2ccc(C(C)(C)C)cc2)cc1 | > 6.62 | > 6.62 | – |
| Nc1ccc(OC2=C(Cl)C(=O)c3ccccc3C2=O)cc1 | 5.91 | – | IC50 (HEPG2TOX_HILL_SLOPE 2.46, HEPG2TOX_R_SQUARED 0.976, PBLUC_HILL_SLOPE 10.6, PBLUC_R_SQUARED 0.396, read-out: LUCIFERASE INFECTION ASSAY - IC50): 4.8 µM |
| CCCc1cc(NCc2ccccn2)n2ncc(-c3ccccc3)c2n1 | > 9.61 | – | IC50 (PBLUC_HILL_SLOPE 2.13, PBLUC_R_SQUARED 0.117, read-out: LUCIFERASE INFECTION ASSAY - IC50): 5.6 µM |
| Cc1cccc(N2CCN(C(=O)/C=C/c3cnn(-c4ccccc4)c3)CC2)c1 | > 10 | > 10 | – |
